Test results from paper PMC6130872, “Plasmodium vivax Pv12 B-cell epitopes and HLA-DRβ1*-dependent T-cell epitopes in vitro antigenicity” (PLoS ONE, 2018).
No end group written: not given here.

Experiments:
[1] = biological target: T1, HLA-DRβ1*0401 (Homo sapiens, UniProt P01903+P01911, A100K/A169T/F76Y/I96L/K127E/L162R/M171V/N62H/P40V/Q125Y/R42H/S133A/S149N/S66Y/V115G/V209L/W38E); assay: In vitro HLA-DRβ1 binding assay (competitive ELISA, biotinylated control peptide displacement); details: for inhibition at 250 µM: 24 h, read-out: Binding percentage; for IC50: DRβ1*0401, 50% displacement of biotinylated HA, 4.2 to 250 μM serial dilutions, second order exponential decay fit
T1 construct: endogenous in cells; host or cells: IHW09025 homozygous lymphoblastoid B-cell line (IHWG)

[2] = biological target: HLA-DRβ1*1302 (Homo sapiens, UniProt P01903+P01911, A100E/A169T/K41T/L162R/M171V/P40S/Q125H/Q178H/Q39Y/Q99D/R42S/S66N/T262R/V115G/W38E/Y61H); assay: biochemical; type: binding; details: for inhibition at 250 µM: 24 h, read-out: Binding percentage; for IC50: 50% displacement of biotinylated TT, 4.2 to 250 μM serial dilutions, second order exponential decay fit
Sequence of HLA-DRβ1*1302 (P01903 26-254 limits assumed, other chains not shown): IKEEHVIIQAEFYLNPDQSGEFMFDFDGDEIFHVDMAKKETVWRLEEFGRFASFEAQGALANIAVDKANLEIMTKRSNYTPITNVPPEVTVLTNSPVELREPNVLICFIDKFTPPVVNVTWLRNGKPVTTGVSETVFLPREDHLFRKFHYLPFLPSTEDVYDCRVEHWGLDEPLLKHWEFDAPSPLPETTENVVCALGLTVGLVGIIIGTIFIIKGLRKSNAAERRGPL

[3] = biological target: HLA-DRβ1*0701 (Homo sapiens, UniProt P01903+P01911, A100R/A102G/A103Q/D57E/D86V/E43K/F76Y/K127E/L162R/M171V/P40G/Q125H/Q99D/R33Q/R42Y/R54Q/S133A/S66F/T210M/V115G/Y107V/Y59L/Y89S); assay: biochemical; type: binding; details: for inhibition at 250 µM: 24 h, read-out: Binding percentage; for IC50: 50% displacement of biotinylated TT, 4.2 to 250 μM serial dilutions, second order exponential decay fit
[4] = biological target: T2, HLA-DRβ1*1101 (Homo sapiens, UniProt P01903+P01911, A100R/A169T/A87E/I96F/K41T/L162R/M171V/P40S/Q125H/Q178H/Q39Y/Q99D/R42S/S66Y/T262R/V115G/W38E); assay: biochemical; type: binding; details: for inhibition at 250 µM: 24 h, read-out: Binding percentage; for IC50: DRβ1*1101, 50% displacement of biotinylated HA, 4.2 to 250 μM serial dilutions, second order exponential decay fit
T2 construct: endogenous in cells; host or cells: IHW09043 homozygous lymphoblastoid B-cell line (IHWG)
T2 sequence (P01903 26-254, other chains not shown): as the sequence (P01903 26-254 limits assumed, other chains not shown) above

[5] = tested on: CD4+ T-lymphocytes (PBMCs); assay: Lymphoproliferation assay (CFSE, flow cytometry); type: cell-based, human
Protocol: P. vivax-exposed individuals and control group PB samples were taken and placed in citrate phosphate dextrose (CPD) solution in Vacutainer tubes (BD Vacutainer); 40 mL blood was used to obtain PBMCs from gradient centrifugation with Ficoll-Paque PLUS (GE Healthcare) to evaluate the proliferative response against Pv12 peptides.
Two hundred thousand (2 x 10^5) PBMCs per well were seeded in 96-well round-bottomed plates (Costar, Corning Incorporated) in RPMI 1640 medium (Gibco) supplemented with inactivated 10% autologous plasma, 2 g/L sodium bicarbonate, 2 mM L-glutamine, 1 mM sodium pyruvate and100 U/mL Antibiotic-Antimycotic solution (all Gibco). The PBMCs were labelled with carboxyfluorescein diacetate N-succinimidyl ester (CFSE) (5μM) (CellTrace CFSE cell proliferation kit, Molecular Probes, Eugene, OR, USA) and stimulated with each peptide at 10 μg/mL final concentration.
Control PBMCs were stimulated with 5 μg/mL parasite lysate and 2% phytohaemagglutinin (PHA) (Sigma) as positive controls. Low binding peptide (LBP) 39115 was used as negative control in experimental binding assays and a well containing PBMCs with just medium (unstimulated) was used as assay control. The cells were cultured at 37°C in a 5% CO2 atmosphere for 96 hours; assays were carried out in duplicate. Pacific Blue-labelled mouse anti-human CD4 (RPA-T4 clone) (BD Biosciences) antibody was then used for labelling the cells which were read on a FACS Canto II flow cytometer (BD Biosciences). FlowJo software v7.6.5 (FlowJo, LLC) was used for analysing the data and CD4^+ T-lymphocyte proliferation.
Cell proliferation was calculated by relative loss regarding CFSE fluorescence intensity, calculated as the percentage of fluorescence intensity of cells co-cultured with antigen divided by the percentage of co-cultured cells’ fluorescence intensity in the absence of antigen. The results were expressed as stimulation index (SI); a ≥2 value was considered positive.
CD4+ lymphocyte mean fluorescence intensity (MFI) values were used for additional analysis. Cell proliferation was calculated as the stimulation rate, where the unstimulated CD4+ T-cell population MFI was divided by the stimulated CD4+ T-cell population’s MFI. MFI becomes less as the antigen stimulates CD4+ T-lymphocytes, whereby ≥1 values indicate cell proliferation. The relative value of proliferation was considered positive, with at least 1% loss in the mean intensity of florescence of the CD4+ population, i.e. ≥1.01.

[6] = 0.1 μM purified molecule, 5 μM biotinylated TT, 250 μM test peptide, 24 h RT, OD 405 nm

**Q.** Which results are given for EECFLQGFNLSGKKE [Peptide 39113]?
**A.** inhibition at 250 µM [1]: 95.8%; IC50 [1]: 7.36 µM; inhibition at 250 µM [2, 6]: 9.28%; inhibition at 250 µM [3, 6]: 8.89%; inhibition at 250 µM [4]: 62.9%; IC50 [4]: 38.5 µM

**Q.** What does the source list for GCDFTKNTSPLFTKG [Peptide 39119]?
**A.** inhibition at 250 µM [1]: 17.4%; IC50 [2]: 7.47 µM; inhibition at 250 µM [2, 6]: 92.2%; inhibition at 250 µM [3, 6]: 29.4%; inhibition at 250 µM [4]: 26.9%

**Q.** Which results are given for KKSYDDVSFRVPPNL [Peptide 39115]?
**A.** Binding percentage [1]: 12.98%; Binding percentage [2, 6]: 12.00%; Binding percentage [3, 6]: 9.86%; control group response (responders/8) ([5]; control group, n = 8): 0/8; frequency of response (responders, SI ≥2) ([5]; exposed individuals): 28%; stimulation index (SI), average response ([5]; exposed individuals, peptide 10 μg/mL, lysate 5 μg/mL, 96 h, CFSE, SI ≥2 positive): 2.018; responders according to relative proliferation values (MFI) ([5]; exposed individuals, positive ≥1.01): 50%; Binding percentage [4]: 20.02%

**Q.** How did the inhibition at 250 µM [1] turn out when KRLVAHFEFATTPDD [Peptide 39122] was run?
**A.** The inhibition at 250 µM was 80.9%.

**Q.** And the IC50 [1]?
**A.** Its IC50 is 58.9 µM.

**Q.** What about the inhibition at 250 µM [2, 6] of the same substance?
**A.** Its inhibition at 250 µM is 71.1%.

**Q.** And the inhibition at 250 µM [3, 6]?
**A.** Its inhibition at 250 µM is 23.1%.

**Q.** And the inhibition at 250 µM [4]?
**A.** Its inhibition at 250 µM is 74.9%.

**Q.** And the IC50 [4]?
**A.** Its IC50 is 170 µM.

**Q.** With LGIIEVLIPSLPKKI [Peptide 39117] as the substance, how does the inhibition at 250 µM [1] read?
**A.** The inhibition at 250 µM was 33.1%.

**Q.** And the IC50 [2]?
**A.** Its IC50 is 6.65 µM.

**Q.** And the inhibition at 250 µM [2, 6]?
**A.** Its inhibition at 250 µM is 95.4%.

**Q.** And the IC50 [3]?
**A.** The IC50 was 11.5 µM.

**Q.** And the inhibition at 250 µM [3, 6]?
**A.** The inhibition at 250 µM was 98.6%.

**Q.** And the inhibition at 250 µM [4]?
**A.** Its inhibition at 250 µM is 51.1%.

**Q.** What about the IC50 [4] of the same substance?
**A.** Its IC50 is 134 µM.

**Q.** Which results are given for LTDLVMDHYNKIFYA [Peptide 39120]?
**A.** inhibition at 250 µM [1]: 26.7%; IC50 [2]: 38 µM; inhibition at 250 µM [2, 6]: 86%; inhibition at 250 µM [3, 6]: 40.6%; inhibition at 250 µM [4]: 32.7%

**Q.** With LVEYLHGAAAIVKRK [Peptide 39118] as the substance, how does the inhibition at 250 µM [1] read?
**A.** The inhibition at 250 µM was 13.5%.

**Q.** And the inhibition at 250 µM [2, 6]?
**A.** Its inhibition at 250 µM is 31.7%.

**Q.** And the IC50 [3]?
**A.** Its IC50 is 15.2 µM.

**Q.** And the inhibition at 250 µM [3, 6]?
**A.** The inhibition at 250 µM was 90%.

**Q.** And the inhibition at 250 µM [4]?
**A.** Its inhibition at 250 µM is 48.2%.

**Q.** With RKNYELLPNNCFEQV [Peptide 39112] as the substance, how does the inhibition at 250 µM [1] read?
**A.** Its inhibition at 250 µM is 95.8%.

**Q.** And the IC50 [1]?
**A.** Its IC50 is 7.26 µM.

**Q.** And the inhibition at 250 µM [2, 6]?
**A.** Its inhibition at 250 µM is 14.1%.

**Q.** What about the IC50 [3] of the same substance?
**A.** Its IC50 is 29.2 µM.

**Q.** What about the inhibition at 250 µM [3, 6] of the same substance?
**A.** Its inhibition at 250 µM is 76.4%.

**Q.** And the inhibition at 250 µM [4]?
**A.** Its inhibition at 250 µM is 55.4%.

**Q.** How did the IC50 [1] turn out when YNKIFYARVPQRIYQ [Peptide 39114] was run?
**A.** Its IC50 is 43.2 µM.

**Q.** And the IC50 [2]?
**A.** Its IC50 is 73.3 µM.

**Q.** And the inhibition at 250 µM [2, 6]?
**A.** Its inhibition at 250 µM is at least 50%.

**Q.** What about the IC50 [3] of the same substance?
**A.** The IC50 was 43.1 µM.

**Q.** What about the IC50 [4] of the same substance?
**A.** Its IC50 is 8.28 µM.

**Q.** With “phytohaemagglutinin [PHA, reference compound]” as the substance, how does the “control group individuals responding” value ([5]; control group) read?
**A.** The value was 100%.

**Q.** And the “frequency of response (responders, SI ≥2)” value ([5]; exposed individuals)?
**A.** Its value is 96.6%.
